Laboratory results as given in PubChem BioAssay (NCI).
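How tested: cells in 96-well plates exposed to compound for 48 hours at five concentrations. GI50: concentration for 50% inhibition of growth. At the TGI there is no net growth.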

What was measured:
Experiment in all cases: DTP human tumour cell line panel, 48 h
CCRF-CEM leukemia = system: CCRF-CEM leukemia
DU-145 prostate = system: DU-145 prostate
UACC-257 melanoma = system: UACC-257 melanoma
NCI/ADR-RES ovarian = system: NCI/ADR-RES ovarian
NCI-H23 lung = system: NCI-H23 lung
TK-10 renal = system: TK-10 renal
K-562 leukemia = system: K-562 leukemia
COLO 205 colon = system: COLO 205 colon
RPMI-8226 leukemia = system: RPMI-8226 leukemia
SR leukemia = system: SR leukemia

Compound | GI50 (CCRF-CEM leukemia) [µM] | TGI (CCRF-CEM leukemia) [µM] | GI50 (DU-145 prostate) [µM] | TGI (DU-145 prostate) [µM] | GI50 (UACC-257 melanoma) [µM] | TGI (UACC-257 melanoma) [µM] | GI50 (NCI/ADR-RES ovarian) [µM] | TGI (NCI/ADR-RES ovarian) [µM] | GI50 (NCI-H23 lung) [µM] | TGI (NCI-H23 lung) [µM] | GI50 (TK-10 renal) [µM] | TGI (TK-10 renal) [µM] | GI50 (K-562 leukemia) [µM] | TGI (K-562 leukemia) [µM] | GI50 (COLO 205 colon) [µM] | TGI (COLO 205 colon) [µM] | GI50 (RPMI-8226 leukemia) [µM] | TGI (RPMI-8226 leukemia) [µM] | GI50 (SR leukemia) [µM] | TGI (SR leukemia) [µM]
c1cc(N2CCN(c3ccc(C4=NCCCN4)cc3)CC2)ccc1C1=NCCCN1 | > 61.4 | > 100 | > 66.6 | > 100 | 99 | > 100 | > 100 | > 100 | 30 | > 100 | > 69.4 | > 100 | > 65.5 | > 100 | > 45.6 | > 100 | 23.8 | > 100 |  | 
CSc1ccc(C2=NN(C(C)=O)C(c3ccc(-c4ccc(Cl)cc4)o3)C2)cc1 (centres undefined) | 44.2 | > 100 | 81 | > 100 | 77 | > 100 | 41.4 | > 100 | 86.1 | > 100 | 37.3 | > 100 | 31.5 | > 100 | 36.2 | > 100 | 23.8 | > 100 |  | 
Nc1n[nH]c2ccc([C@@H]3Nc4cc5c(cc4[C@H]4C6CCC(C6)[C@@H]34)C(=O)NC5)cc12 (some centres undefined) | 0.323 | > 100 | 0.416 | > 40.7 | > 100 | > 100 | 2.69 | > 100 | 0.431 | > 100 | 70.1 | > 100 | 0.131 | > 100 | 0.326 | 1.7 |  |  | 0.149 | > 100
CCCCNc1nc(NC2OCC(OC(C)=O)C(OC(C)=O)C2OC(C)=O)c(N=O)c(=O)n1C (centres undefined) |  | > 10 |  | > 10 |  | > 10 |  | > 10 |  | > 10 |  | > 10 |  |  |  | > 10 |  | > 10 |  | > 10
Oc1cccc2c1NCCC2 | 0.219 | > 100 | 0.229 | 54.8 | 1.12 | 5.83 | 1.25 | 30.4 | 0.103 | > 37 | 1.96 | > 100 | 0.141 | > 73.9 | 2.84 | 12.9 | 0.12 | > 100 |  | 
Fc1cccc(F)c1C(Nc1nncs1)Nc1nncs1 |  |  |  | > 100 |  | > 100 |  | > 100 |  | > 100 |  | > 100 |  | > 100 |  | > 100 |  | > 100 |  | 
COc1cc(-c2nn(-c3cccc(NC(=O)CCN4CCN(Cc5ccccc5)CC4)c3)cc2-c2ccncc2)ccc1Cl | 0.691 | > 100 | 1.56 | 10.9 | 1.7 | 3.55 | 0.44 | 2.28 | 1.73 | 9.26 | 2.93 | 12.2 |  |  |  |  |  |  | 0.393 | 2.48
C=C1[C@@H](O)O[C@H]2[C@H]1C[C@H](OC(C)=O)[C@]13C(=O)O[C@H]4C[C@](C)(O)[C@H]([C@H]41)C31C=C(C)[C@]2(O)O1 | 18.9 | > 100 |  |  | 25.6 | 87.2 | 28 | 80.8 |  |  |  |  | 53.8 | > 100 | 48.9 | > 100 | 24.2 | > 100 | 40.9 | > 100
O=c1c2cc(F)ccc2sc2c(NCCCNCCO)nc3ccccc3c12 | 2.02 | 4.76 | 1.72 | 3.13 | 1.98 | 3.94 | 1.78 | 3.44 | 1.72 | 3.22 | 1.89 | 3.53 |  |  | 2.08 | 4.66 | 2.08 | 4.63 |  | 
COc1cc(C2(C)SCCCS2)cc(OC)c1OC |  | > 100 |  |  |  | > 100 |  |  |  | > 100 |  | > 100 |  | > 100 |  | > 100 |  | > 100 |  | > 100
COc1ccc(NC(=O)C(=O)/C=C(\O)c2ccccc2)cc1 |  | 8.76 |  | > 10 |  | > 10 |  |  |  | > 10 |  | > 10 |  | > 10 |  | > 10 |  | > 10 |  | 3.41
C[C@@H]1O[C@@H](O[C@@H]2[C@@H](O)[C@H](OCCc3ccc(O)c(O)c3)O[C@H](CO)[C@H]2OC(=O)/C=C/c2ccc(O)c(O)c2)[C@H](O)[C@H](OC2OC[C@](O)(CO)[C@H]2O)[C@H]1O (some centres undefined) |  |  | 16.9 | 48 | 27 | 90.1 |  |  |  |  | > 100 | > 100 | 58.5 | > 100 | > 100 | > 100 | 34.9 | > 100 | > 100 | > 100
